PMC3261753 (Biochemistry, 2011)

Legend:
[1] = test system: wild-type B. anthracis topoisomerase IV; type: biochemical, Bacillus anthracis
[2] = test system: S. pneumoniae gyrase resistance mutations; conditions: cited from earlier work
[3] = test system: S. pneumoniae topoisomerase IV resistance mutations; conditions: cited from earlier work

SMILES	Relative potency/efficacy of DNA cleavage enhancement among quinolones [1]	CC3 (concentration of drug required to triple the percent DNA cleavage observed in the absence of drug) [1] [µM]	Max. DNA cleavage [1] [%]	further results
C[C@@H]1CN(c2c(F)c(N)c3c(=O)c(C(=O)O)cn(C4CC4)c3c2F)C[C@H](C)N1 [sparfloxacin]	least potent and efficacious quinolone examined			
O=C(O)c1cn(C2CC2)c2cc(N3CCNCC3)c(F)cc2c1=O [Ciprofloxacin]				Drop in potency with mutant enzyme [2]: ~ 8 fold; Drop in potency with mutant enzyme [3]: > 16 fold
C[C@H]1COc2c(N3CCN(C)CC3)c(F)cc3c(=O)c(C(=O)O)cn1c23 [Levofloxacin, levofloxacin]	most efficacious	1.45	30.4	Drug concentration that generated maximal DNA cleavage [1]: 20 µM
Cc1c(N2CC[C@@H](CN)C2)c(F)cc2c(=O)n(N)c(=O)n(C3CC3)c12 [8-methyl-quinazoline-2,4-dione, 3-Amino-7-[(3S)-3-(aminomethyl)-1-pyrrolidinyl]-1-cyclopropyl-6-fluoro-8-methyl-2,4(1H,3H) -quinazolinedione]		0.20	29.0	Mg2+ concentration for half-maximal DNA cleavage [1]: ~ 0.35 mM; Mg2+ concentration for maximal DNA cleavage [1]: ~ 1 mM; Potency relative to ciprofloxacin (as reflected by the CC3 value) [1]: ~ 2.5 times
